Test: recombinant UMI read abundance after kanamycin selection (control-corrected) (log10(CPM+1)); higher = more efficient recombination; extreme values may be limits of the assay; sequences stand for … in AGTGCAGAGAAAATCGGCCAGTTTTCTCTGCCTGCAGTCCGCATGCCGTGGGACCCCTTGGGTTCTAACCTGTTGCCTAGATTTATGCAGCGGACTGCCTTTCTCCCAAAGTGATAAACCGG…AGGTTGGTTTCACT; site = the 11-nt donor
Method in brief: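 Two replicates each of selected and unselected plating were used in this pooled Escherichia coli screen of donor and donor-binding-loop pairs for the IS621 bridge recombinase. Selection was with IPTG (0.07 mM) and kanamycin. Counts of recombinant UMIs, amplified across the donor–target junction, were converted to CPM, averaged, scaled by control-derived factors and reported as log10(CPM+1).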
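Note: IS621 bridge recombinase in Escherichia coli cells against a fixed T5 target plasmid.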

Sequence | recombinant UMI read abundance (log10)
CAAGCGCCATGGACCGGTTTTCCCGGTAATCCGTATTTGCG (site CAAGCGCCTCC) | 0.0171
CAAGCGCCATGGACCGGTTTTCCCGGTAATCCGTATTTGCG (site CAAGCGCCTCG) | 2.05
CAAGCGCCATGGACCGGTTTTCCCGGTAATCCGTATTTGCG (site CAAGCGCCTCT) | 0.00392
CAAGCGCCATGGACCGGTTTTCCCGGTAATCCGTATTTGTC (site CAAGCGCCTAA) | 0.486
CAAGCGCCATGGACCGGTTTTCCCGGTAATCCGTATTTGTC (site CAAGCGCCTCA) | 0.42
CAAGCGCCATGGACCGGTTTTCCCGGTAATCCGTATTTGTC (site CAAGCGCCTGA) | 2.51
CAAGCGCCATGGACCGGTTTTCCCGGTAATCCGTATTTGTC (site CAAGCGCCTTA) | 0.529
CAAGCGGCATGGACCGGTTTTCCCGGTAATCCGTATTTGTG (site CAAGCGACTCA) | 1.37
CAAGCGGCATGGACCGGTTTTCCCGGTAATCCGTATTTGTG (site CAAGCGCCTCA) | 0.00533
CAAGCGGCATGGACCGGTTTTCCCGGTAATCCGTATTTGTG (site CAAGCGGCTCA) | 0.904
CAAGCGGCATGGACCGGTTTTCCCGGTAATCCGTATTTGTG (site CAAGCGTCTCA) | 1.66
CAAGTAACATGGACCGGTTTTCCCGGTAATCCGTATTTGGG (site CAAGTAACTCC) | 1.53
CAAGTAACATGGACCGGTTTTCCCGGTAATCCGTATTTGGG (site CAAGTCACTCC) | 0.0125
CAAGTAACATGGACCGGTTTTCCCGGTAATCCGTATTTGGG (site CAAGTGACTCC) | 0.0247
CAAGTAACATGGACCGGTTTTCCCGGTAATCCGTATTTGGG (site CAAGTTACTCC) | 0.237
CAAGTCACATGGACCGGTTTTCCCGGTAATCCGTATTTGCG (site CAAGTCACTCA) | 1.27
CAAGTCACATGGACCGGTTTTCCCGGTAATCCGTATTTGCG (site CAAGTCACTCC) | 0.632
CAAGTCACATGGACCGGTTTTCCCGGTAATCCGTATTTGCG (site CAAGTCACTCG) | 2.34
CAAGTCACATGGACCGGTTTTCCCGGTAATCCGTATTTGCG (site CAAGTCACTCT) | 1.63

Sequence | recombinant UMI read abundance (log10)
CAAGTCACATGGACCGGTTTTCCCGGTAATCCGTATTTGGG (site AAAGTCACTCC) | 0.0232
CAAGTCACATGGACCGGTTTTCCCGGTAATCCGTATTTGGG (site CAAATCACTCC) | 0.0224
CAAGTCACATGGACCGGTTTTCCCGGTAATCCGTATTTGGG (site CAACTCACTCC) | 0.177
CAAGTCACATGGACCGGTTTTCCCGGTAATCCGTATTTGGG (site CAAGACACTCC) | 0.0192
CAAGTCACATGGACCGGTTTTCCCGGTAATCCGTATTTGGG (site CAAGCCACTCC) | 0.239
CAAGTCACATGGACCGGTTTTCCCGGTAATCCGTATTTGGG (site CAAGGCACTCC) | 0.0072
CAAGTCACATGGACCGGTTTTCCCGGTAATCCGTATTTGGG (site CAAGTAACTCC) | 0.0617
CAAGTCACATGGACCGGTTTTCCCGGTAATCCGTATTTGGG (site CAAGTCACTAC) | 0.0634
CAAGTCACATGGACCGGTTTTCCCGGTAATCCGTATTTGGG (site CAAGTCACTCA) | 0.0308
CAAGTCACATGGACCGGTTTTCCCGGTAATCCGTATTTGGG (site CAAGTCACTCC) | 0.013
CAAGTCACATGGACCGGTTTTCCCGGTAATCCGTATTTGGG (site CAAGTCACTCG) | 0
CAAGTCACATGGACCGGTTTTCCCGGTAATCCGTATTTGGG (site CAAGTCACTCT) | 0.593
CAAGTCACATGGACCGGTTTTCCCGGTAATCCGTATTTGGG (site CAAGTCACTGC) | 0
CAAGTCACATGGACCGGTTTTCCCGGTAATCCGTATTTGGG (site CAAGTCACTTC) | 0.00273
CAAGTCACATGGACCGGTTTTCCCGGTAATCCGTATTTGGG (site CAAGTCCCTCC) | 0.0287
CAAGTCACATGGACCGGTTTTCCCGGTAATCCGTATTTGGG (site CAAGTCGCTCC) | 0.0204
CAAGTCACATGGACCGGTTTTCCCGGTAATCCGTATTTGGG (site CAAGTCTCTCC) | 0.493
CAAGTCACATGGACCGGTTTTCCCGGTAATCCGTATTTGGG (site CAAGTGACTCC) | 0.0398
CAAGTCACATGGACCGGTTTTCCCGGTAATCCGTATTTGGG (site CAAGTTACTCC) | 0.161

Sequence | recombinant UMI read abundance (log10)
CAAGTCACATGGACCGGTTTTCCCGGTAATCCGTATTTGGG (site CAATTCACTCC) | 0.0165
CAAGTCACATGGACCGGTTTTCCCGGTAATCCGTATTTGGG (site CACGTCACTCC) | 0
CAAGTCACATGGACCGGTTTTCCCGGTAATCCGTATTTGGG (site CAGGTCACTCC) | 0.0212
CAAGTCACATGGACCGGTTTTCCCGGTAATCCGTATTTGGG (site CATGTCACTCC) | 0.0038
CAAGTCACATGGACCGGTTTTCCCGGTAATCCGTATTTGGG (site CCAGTCACTCC) | 0.0443
CAAGTCACATGGACCGGTTTTCCCGGTAATCCGTATTTGGG (site CGAGTCACTCC) | 0.00994
CAAGTCACATGGACCGGTTTTCCCGGTAATCCGTATTTGGG (site CTAGTCACTCC) | 0.0139
CAAGTCACATGGACCGGTTTTCCCGGTAATCCGTATTTGGG (site GAAGTCACTCC) | 0.0173
CAAGTCACATGGACCGGTTTTCCCGGTAATCCGTATTTGGG (site TAAGTCACTCC) | 0.0086
CAAGTCGCATGGACCGGTTTTCCCGGTAATCCGTATTTGGT (site CAAGTCGCTAC) | 1.77
CAAGTGCCATGGACCGGTTTTCCCGGTAATCCGTATTTGTA (site CAAGTGCCTTA) | 1.56
CAAGTTACATGGACCGGTTTTCCCGGTAATCCGTATTTGGG (site CAAGTAACTCC) | 0.277
CAAGTTACATGGACCGGTTTTCCCGGTAATCCGTATTTGGG (site CAAGTCACTCC) | 0.252
CAAGTTACATGGACCGGTTTTCCCGGTAATCCGTATTTGGG (site CAAGTGACTCC) | 0.0286
CAAGTTACATGGACCGGTTTTCCCGGTAATCCGTATTTGGG (site CAAGTTACTCC) | 0.861
CAATCATCATGGACCGGTTTTCCCGGTAATCCGTATTTGAT (site CAATCATCTAT) | 0.435
CAATCATCATGGACCGGTTTTCCCGGTAATCCGTATTTGAT (site CGATCATCTAG) | 0
CAATCATCATGGACCGGTTTTCCCGGTAATCCGTATTTGCC (site CAATCATCTGG) | 0.733
CAATCATCATGGACCGGTTTTCCCGGTAATCCGTATTTGCC (site CGATCATCTAG) | 0

Source: the supplement of paper PMC11208160
